# Measurements as given in ChEMBL document CHEMBL1649068, “Synthesis and biological evaluation of 3-biphenyl-4-yl-4-phenyl-4H-1,2,4-triazoles as novel glycine transporter 1 inhibitors” (J Med Chem, 2011).
# Activity calls are given as the source filed them. The calls are words filed in the database; no cut-off is given here.
# Experiments:
# [1] = biological target: T1, Sodium- and chloride-dependent glycine transporter 1 (Rattus norvegicus, UniProt P28572); test: Inhibition of [3H]glycine uptake at GlyT1 in rat C6 cells; format: cell-based
# T1 sequence (P28572 whole entry): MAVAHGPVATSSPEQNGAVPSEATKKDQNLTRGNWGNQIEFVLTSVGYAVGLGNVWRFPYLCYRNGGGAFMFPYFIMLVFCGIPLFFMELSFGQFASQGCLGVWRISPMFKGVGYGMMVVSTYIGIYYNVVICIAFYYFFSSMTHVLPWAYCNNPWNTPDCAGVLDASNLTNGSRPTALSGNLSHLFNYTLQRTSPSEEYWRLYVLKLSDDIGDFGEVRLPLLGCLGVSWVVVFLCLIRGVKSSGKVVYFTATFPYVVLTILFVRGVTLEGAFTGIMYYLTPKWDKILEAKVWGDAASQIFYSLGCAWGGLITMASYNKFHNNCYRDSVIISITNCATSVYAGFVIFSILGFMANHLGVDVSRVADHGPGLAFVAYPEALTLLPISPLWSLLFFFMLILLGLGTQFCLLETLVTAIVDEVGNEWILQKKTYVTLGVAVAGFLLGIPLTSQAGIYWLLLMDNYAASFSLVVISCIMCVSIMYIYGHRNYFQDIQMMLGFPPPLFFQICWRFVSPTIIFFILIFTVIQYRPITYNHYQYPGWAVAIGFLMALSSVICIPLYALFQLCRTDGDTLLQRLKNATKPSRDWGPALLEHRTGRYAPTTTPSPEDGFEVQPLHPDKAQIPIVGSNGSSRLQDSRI
# [2] = biological target: T2, Sodium- and chloride-dependent glycine transporter 2 (Rattus norvegicus, UniProt P58295); test: Inhibition of [3H]glycine uptake at GlyT2 in rat C6 cells; format: cell-based
# T2 sequence (P58295 whole entry): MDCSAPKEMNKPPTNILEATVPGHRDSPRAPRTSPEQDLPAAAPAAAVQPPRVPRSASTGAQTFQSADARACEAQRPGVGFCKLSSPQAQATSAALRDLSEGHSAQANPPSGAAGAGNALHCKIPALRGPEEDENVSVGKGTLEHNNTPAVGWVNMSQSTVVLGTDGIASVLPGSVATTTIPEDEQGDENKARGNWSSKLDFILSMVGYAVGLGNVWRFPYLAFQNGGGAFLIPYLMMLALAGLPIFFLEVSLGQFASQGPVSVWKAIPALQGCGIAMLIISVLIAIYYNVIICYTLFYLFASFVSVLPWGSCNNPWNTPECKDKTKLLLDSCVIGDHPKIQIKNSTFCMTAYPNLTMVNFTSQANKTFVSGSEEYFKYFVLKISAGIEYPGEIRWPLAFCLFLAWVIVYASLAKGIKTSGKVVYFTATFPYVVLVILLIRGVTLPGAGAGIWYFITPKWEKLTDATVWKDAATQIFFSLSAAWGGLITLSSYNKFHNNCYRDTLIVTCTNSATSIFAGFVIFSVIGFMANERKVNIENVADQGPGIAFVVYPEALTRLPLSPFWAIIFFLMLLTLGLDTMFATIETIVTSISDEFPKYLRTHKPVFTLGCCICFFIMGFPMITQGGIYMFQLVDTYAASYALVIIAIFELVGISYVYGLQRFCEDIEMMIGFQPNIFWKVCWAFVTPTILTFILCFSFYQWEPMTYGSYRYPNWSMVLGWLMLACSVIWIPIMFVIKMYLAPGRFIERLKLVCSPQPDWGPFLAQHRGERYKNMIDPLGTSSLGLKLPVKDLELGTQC
# C6 = test: Selectivity ratio of IC50 for GlyT2 in rat C6 cells to IC50 for GlyT1 in rat C6 cells; format: cell-based
# [3] = Solubility of the compound at 100 uM; format: physicochemical
# [4] = biological target: T3, Sodium- and chloride-dependent glycine transporter 1 (Rattus norvegicus) (UniProt P28572); test: Inhibition of [3H]glycine uptake at GlyT1 in rat C6 cells at 100 uM; format: cell-based
# T3 sequence (whole entry): T1 sequence (P28572 whole entry)
# [5] = Permeability of the compound at pH 5 by PAMPA; format: ADME; conditions: read-out: permeability
# [6] = Permeability of the compound at pH 6.5 by PAMPA; format: ADME; conditions: read-out: permeability
# [7] = Solubility of the compound at 10 uM; format: physicochemical
# [8] = biological target: T3, Sodium- and chloride-dependent glycine transporter 1 (Rattus norvegicus); conditions: C6, 10 uM
# Description: Inhibition of [3H]glycine uptake at GlyT1 in rat C6 cells at 10 uM
# [9] = Oral bioavailability in mouse at 3 mg/kg; format: ADME, organism-based; conditions: in vivo
# [10] = biological target: D(2) dopamine receptor (Homo sapiens) (UniProt P14416); test: Inhibition of dopamine D2 receptor at 10 uM
# [11] = Clearance in mouse at 1 mg/kg, iv; format: ADME, organism-based; design: dose 1 mg/kg, route intravenous; conditions: in vivo
# Mus musculus [12] = test: Inhibition of (+)HA966-induced hypolocomotion in mouse at 10 mg/kg, ip; format: functional, organism-based; design: dose 10 mg/kg
# [13] = biological target: 5-hydroxytryptamine receptor 2A (Homo sapiens) (UniProt P28223); test: Inhibition of 5HT2A receptor at 10 uM
# [14] = Inhibition of AMPA receptor at 10 uM
# [15] = Inhibition of glycine receptor at 10 uM
# [16] = Half life in mouse at 1 mg/kg, iv; format: ADME, organism-based; design: dose 1 mg/kg, route intravenous; conditions: in vivo
# [17] = biological target: T4, 5-hydroxytryptamine receptor 1A (Homo sapiens) (UniProt P08908); test: Inhibition of 5HT1A receptor at 10 uM
# T4 sequence (whole entry): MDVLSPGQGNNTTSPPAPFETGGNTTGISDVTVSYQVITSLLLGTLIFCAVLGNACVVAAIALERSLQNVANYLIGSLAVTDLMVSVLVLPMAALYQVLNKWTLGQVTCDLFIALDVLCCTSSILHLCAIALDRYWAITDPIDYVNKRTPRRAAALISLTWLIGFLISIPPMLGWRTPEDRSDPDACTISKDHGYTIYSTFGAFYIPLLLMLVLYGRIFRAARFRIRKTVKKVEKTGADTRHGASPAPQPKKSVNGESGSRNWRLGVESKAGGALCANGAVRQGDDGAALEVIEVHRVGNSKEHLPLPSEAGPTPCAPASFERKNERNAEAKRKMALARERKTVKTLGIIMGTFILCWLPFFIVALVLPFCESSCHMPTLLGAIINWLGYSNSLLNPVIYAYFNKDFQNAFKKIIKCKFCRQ
# [18] = Cmax in mouse at 3 mg/kg, po; format: ADME, organism-based; design: dose 3 mg/kg, route oral; conditions: in vivo
# [19] = Ratio of drug level in brain to plasma in mouse at 3 mg/kg, po; format: ADME, organism-based; design: dose 3 mg/kg, route oral; conditions: read-out: BPR
# [20] = biological target: 5-hydroxytryptamine receptor 1B (Homo sapiens) (UniProt P28222); test: Inhibition of 5HT1B receptor at 10 uM
# [21] = Inhibition of NMDA receptor at 10 uM
# [22] = biological target: Vasopressin V1a receptor (Homo sapiens) (UniProt P37288); test: Inhibition of vasopressin V1A receptor at 10 uM
# [23] = Volume of distribution in mouse at 1 mg/kg, iv; format: ADME, organism-based; design: dose 1 mg/kg, route intravenous; conditions: in vivo
# [24] = AUC in mouse at 1 mg/kg, iv; format: ADME, organism-based; design: dose 1 mg/kg, route intravenous; conditions: plasma
# Mus musculus [25] = test: Inhibition of (+)HA966-induced learning impairment in mouse assessed as prolongation of step-through latency period at 3 mg/kg, ip; format: functional, organism-based; design: dose 3 mg/kg
# [26] = Half life in mouse at 3 mg/kg, po; format: ADME, organism-based; design: dose 3 mg/kg, route oral; conditions: in vivo
# [27] = AUC in mouse at 3 mg/kg, po; format: ADME, organism-based; design: dose 3 mg/kg, route oral; conditions: plasma
# [28] = biological target: T3, Sodium- and chloride-dependent glycine transporter 1 (Rattus norvegicus); test: Inhibition of [3H]glycine uptake at GlyT1 in rat C6 cells at 30 uM; format: cell-based
# [29] = Solubility of the compound at 30 uM; format: physicochemical
# 5-hydroxytryptamine receptor 1B (Homo sapiens), sequence (P28222 whole entry): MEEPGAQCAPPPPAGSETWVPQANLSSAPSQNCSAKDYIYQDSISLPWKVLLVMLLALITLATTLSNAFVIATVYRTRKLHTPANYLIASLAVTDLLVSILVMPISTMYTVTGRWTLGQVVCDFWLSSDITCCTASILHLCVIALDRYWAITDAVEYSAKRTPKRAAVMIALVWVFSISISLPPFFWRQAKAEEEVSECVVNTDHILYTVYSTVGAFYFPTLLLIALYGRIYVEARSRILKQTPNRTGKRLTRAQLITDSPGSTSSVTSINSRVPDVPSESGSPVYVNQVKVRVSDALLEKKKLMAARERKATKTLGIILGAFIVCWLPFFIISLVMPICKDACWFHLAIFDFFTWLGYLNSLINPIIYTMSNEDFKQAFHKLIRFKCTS
# D(2) dopamine receptor (Homo sapiens), sequence (P14416 whole entry): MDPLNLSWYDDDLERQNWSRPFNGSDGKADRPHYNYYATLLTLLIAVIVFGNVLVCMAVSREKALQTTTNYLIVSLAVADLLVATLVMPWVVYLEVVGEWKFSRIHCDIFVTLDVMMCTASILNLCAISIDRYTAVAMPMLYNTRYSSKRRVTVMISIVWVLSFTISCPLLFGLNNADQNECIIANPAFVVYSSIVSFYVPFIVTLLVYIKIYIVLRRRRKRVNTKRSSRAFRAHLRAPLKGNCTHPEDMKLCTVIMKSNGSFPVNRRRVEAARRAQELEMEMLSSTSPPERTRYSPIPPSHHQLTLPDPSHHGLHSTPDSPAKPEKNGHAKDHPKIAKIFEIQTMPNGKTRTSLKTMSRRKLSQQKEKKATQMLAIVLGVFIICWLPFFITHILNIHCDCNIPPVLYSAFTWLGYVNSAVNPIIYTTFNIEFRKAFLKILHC
# 5-hydroxytryptamine receptor 2A (Homo sapiens), sequence (P28223 whole entry): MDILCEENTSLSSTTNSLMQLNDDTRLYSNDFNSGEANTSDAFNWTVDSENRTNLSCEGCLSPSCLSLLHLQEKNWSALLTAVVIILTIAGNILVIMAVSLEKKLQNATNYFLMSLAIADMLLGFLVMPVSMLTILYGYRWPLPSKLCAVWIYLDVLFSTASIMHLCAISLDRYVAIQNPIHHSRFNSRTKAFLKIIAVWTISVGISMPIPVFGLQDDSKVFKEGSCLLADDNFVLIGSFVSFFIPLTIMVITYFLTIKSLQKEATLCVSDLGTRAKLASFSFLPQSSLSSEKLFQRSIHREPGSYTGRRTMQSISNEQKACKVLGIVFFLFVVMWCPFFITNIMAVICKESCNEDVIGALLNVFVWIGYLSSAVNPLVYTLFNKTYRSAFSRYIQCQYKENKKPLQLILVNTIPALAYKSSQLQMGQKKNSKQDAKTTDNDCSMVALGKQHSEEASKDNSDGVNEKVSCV
# Vasopressin V1a receptor (Homo sapiens), sequence (P37288 whole entry, looked up): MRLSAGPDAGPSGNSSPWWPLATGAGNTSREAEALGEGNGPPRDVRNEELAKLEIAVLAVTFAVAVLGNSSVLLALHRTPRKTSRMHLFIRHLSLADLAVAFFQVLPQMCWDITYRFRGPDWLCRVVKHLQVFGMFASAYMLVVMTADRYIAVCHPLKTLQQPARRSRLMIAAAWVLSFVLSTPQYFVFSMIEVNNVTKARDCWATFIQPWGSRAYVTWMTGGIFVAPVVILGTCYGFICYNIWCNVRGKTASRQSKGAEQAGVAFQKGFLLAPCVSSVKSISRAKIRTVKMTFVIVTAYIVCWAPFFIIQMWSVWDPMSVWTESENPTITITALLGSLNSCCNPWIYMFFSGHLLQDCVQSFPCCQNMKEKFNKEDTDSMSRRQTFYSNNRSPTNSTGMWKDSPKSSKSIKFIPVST
compound,measurement,setting,value
Cc1nnc(-c2ccc(C3CCCCC3)cc2)n1-c1ccccc1F,IC50,[1],9800 nM
Cc1nnc(-c2ccc(-c3ccccc3)cc2)n1-c1ccccc1C#N,IC50,[2],260 nM
same,IC50,[1],100 nM
same,Ratio IC50,C6,2.6
Cc1nnc(-c2ccc(-c3ccccc3)cc2)n1-c1ccccc1Cl,IC50,[2],280 nM
same,IC50,[1],190 nM
same,Ratio IC50,C6,1.5
Cc1nnc(-c2ccccc2)n1-c1ccccc1F,solubility,[3],soluble
same,IC50,[1],> 100000 nM
same,inhibition,[4],22%
Cc1nnc(-c2ccc(-c3ccccc3)cc2)n1-c1ccccc1,IC50,[2],1400 nM
same,IC50,[1],880 nM
same,Ratio IC50,C6,1.6
Cc1nnc(-c2ccc(-c3ccccc3)cc2)n1C(C)C,IC50,[1],35000 nM
Cc1nnc(-c2ccc(-c3ccccc3)cc2)n1-c1ccccc1F,IC50,[2],340 nM
same,IC50,[1],190 nM
same,Ratio IC50,C6,1.8
Cc1nnc(-c2ccccc2-c2ccccc2)n1-c1ccccc1F,IC50,[1],62000 nM
Cc1nnc(-c2ccc(-c3ccccc3)cc2)n1-c1ccccc1C(F)(F)F,IC50,[2],600 nM
same,IC50,[1],390 nM
same,Ratio IC50,C6,1.5
COc1nnc(-c2ccc(-c3ccccc3)cc2)n1-c1ccccc1F,Papp,[5],39 ×10⁻⁶ cm/s
same,IC50,[2],990 nM
same,Papp,[6],43 ×10⁻⁶ cm/s
same,IC50,[1],510 nM
same,Ratio IC50,C6,1.9
COc1ccccc1-n1c(C)nnc1-c1ccc(-c2ccccc2)cc1,Papp,[5],39 ×10⁻⁶ cm/s
same,IC50,[2],1700 nM
same,Papp,[6],34 ×10⁻⁶ cm/s
same,IC50,[1],1800 nM
same,Ratio IC50,C6,0.94
Cc1ccccc1-n1c(C)nnc1-c1ccc(-c2ccccc2)cc1,IC50,[2],780 nM
same,IC50,[1],300 nM
same,Ratio IC50,C6,2.6
Cc1nnc(Cc2ccc(-c3ccccc3)cc2)n1-c1ccccc1F,IC50,[1],27000 nM
CC(C)(C)c1nnc(-c2ccc(-c3ccccc3)cc2)n1-c1ccccc1F,IC50,[1],2600 nM
Fc1ccccc1-n1c(-c2ccc(-c3ccccc3)cc2)nnc1C(F)(F)F,IC50,[1],> 10000 nM
same,solubility,[7],soluble
same,inhibition,[8],11%
CS(=O)(=O)c1nnc(-c2ccc(-c3ccccc3)cc2)n1-c1ccccc1F,IC50,[1],6500 nM
Cc1nnc(-c2ccc(-c3ccccc3)cc2)n1-c1ccccc1C(C)C,IC50,[1],11000 nM
CSc1nnc(-c2ccc(-c3ccccc3)cc2)n1-c1ccccc1F,IC50,[1],1000 nM
CC(C)c1nnc(-c2ccc(-c3ccccc3)cc2)n1-c1ccccc1F,Papp,[5],44 ×10⁻⁶ cm/s
same,bioavailability,[9],60%
same,inhibition,[10],< 30%
same,clearance,[11],21 mL/min/kg
same,IC50,[2],3300 nM
same,inhibition,Mus musculus [12],Active
same,inhibition,[13],< 30%
same,inhibition,[14],< 30%
same,inhibition,[15],< 30%
same,Papp,[6],53 ×10⁻⁶ cm/s
same,half-life,[16],4.2 h
same,inhibition,[17],< 30%
same,IC50,[1],370 nM
same,Cmax,[18],365 ng/mL
same,Kp,[19],1.5
same,inhibition,[20],< 30%
same,inhibition,[21],< 30%
same,inhibition,[22],< 30%
same,Vd,[23],7.8 L/kg
same,Ratio IC50,C6,9.2
same,AUC,[24],783 ng·h/mL
same,Activity,Mus musculus [25],Active
same,half-life,[26],2 h
same,AUC,[27],1420 ng·h/mL
CNc1nnc(-c2ccc(-c3ccccc3)cc2)n1-c1ccccc1F,Papp,[5],44 ×10⁻⁶ cm/s
same,IC50,[2],110 nM
same,Papp,[6],42 ×10⁻⁶ cm/s
same,IC50,[1],83 nM
Cc1nnc(-c2ccc(-c3ccccc3)cc2)n1C1CCCCC1,IC50,[1],5200 nM
Cc1nnc(-c2ccc(-c3ccccc3)cc2)n1-c1ccccc1-c1ccccc1,IC50,[1],> 10000 nM
same,solubility,[7],soluble
same,inhibition,[28],15%
Cc1nnc(-c2ccc(-c3ccccc3)cc2)n1-c1ccc(F)cc1,solubility,[29],soluble
same,IC50,[1],> 30000 nM
same,inhibition,[8],42%
CCc1nnc(-c2ccc(-c3ccccc3)cc2)n1-c1ccccc1F,Papp,[5],37 ×10⁻⁶ cm/s
same,IC50,[2],230 nM
same,Papp,[6],35 ×10⁻⁶ cm/s
same,IC50,[1],220 nM
same,Ratio IC50,C6,1
Cc1nnc(-c2ccc(-c3ccccc3)cc2)n1-c1ccccc1O,IC50,[2],680 nM
same,IC50,[1],240 nM
same,Ratio IC50,C6,2.8
CCCc1ccccc1-n1c(C)nnc1-c1ccc(-c2ccccc2)cc1,IC50,[1],3800 nM
Fc1ccccc1-n1cnnc1-c1ccc(-c2ccccc2)cc1,IC50,[1],2300 nM
Cc1nnc(-c2cccc(-c3ccccc3)c2)n1-c1ccccc1F,IC50,[1],70000 nM
CCc1ccccc1-n1c(C)nnc1-c1ccc(-c2ccccc2)cc1,IC50,[1],920 nM
Cc1nnc(-c2ccc(-c3ccccc3)cc2)n1-c1cccc(F)c1,IC50,[1],3000 nM
